Laboratory results: article PMC3695085, “Screening and Improving the Recombinant Nitrilases and Application in Biotransformation of Iminodiacetonitrile to Iminodiacetic Acid” (PLoS ONE, 2013)

Assays:
Format in all cases: biochemical
GpN = target: T1, GpN (Aeribacillus pallidus, UniProt Q0PIV8); assay: GC-FID of ADPN consumed; settings: pH […] potassium phosphate, […] °C, […] min
T1 construct: full-length, pET-28b(+), His-tag (Ni-NTA), E. coli BL21(DE3)
T1 sequence (Q0PIV8 1-323): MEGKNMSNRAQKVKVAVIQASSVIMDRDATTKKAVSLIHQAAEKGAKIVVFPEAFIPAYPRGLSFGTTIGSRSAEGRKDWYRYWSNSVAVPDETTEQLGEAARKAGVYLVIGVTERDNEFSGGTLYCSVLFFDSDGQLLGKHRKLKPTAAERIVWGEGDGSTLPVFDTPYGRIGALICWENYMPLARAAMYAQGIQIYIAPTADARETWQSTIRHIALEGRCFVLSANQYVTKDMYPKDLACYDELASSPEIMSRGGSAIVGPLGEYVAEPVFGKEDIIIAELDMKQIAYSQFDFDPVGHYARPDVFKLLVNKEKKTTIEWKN

RjN = target: T2, RjN (Rhodococcus rhodochrous, UniProt Q03217); assay: GC-FID of ADPN consumed; settings: 50 mM ADPN, pH 7.5, 50 mM potassium phosphate, 35 °C, 30 min
T2 construct: gene nitA; full-length, pET-28b(+), His-tag (Ni-NTA), E. coli BL21(DE3)
T2 sequence (Q03217 1-366 limits assumed): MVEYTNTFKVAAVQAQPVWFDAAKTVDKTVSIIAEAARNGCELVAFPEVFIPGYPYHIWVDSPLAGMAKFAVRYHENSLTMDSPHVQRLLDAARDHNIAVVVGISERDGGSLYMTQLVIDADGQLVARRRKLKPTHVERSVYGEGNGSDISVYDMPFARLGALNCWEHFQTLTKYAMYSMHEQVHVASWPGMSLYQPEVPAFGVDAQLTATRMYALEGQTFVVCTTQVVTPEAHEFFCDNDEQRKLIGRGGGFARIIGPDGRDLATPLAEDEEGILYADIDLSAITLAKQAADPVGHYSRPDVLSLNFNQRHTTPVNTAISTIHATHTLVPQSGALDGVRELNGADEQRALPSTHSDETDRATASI

TpN = target: T3, TpN (Thalassiosira pseudonana, UniProt B8C1M9); assay: GC-FID of ADPN consumed; settings: 50 mM ADPN, pH 7.5, 50 mM potassium phosphate, 35 °C, 30 min
T3 construct: gene NIT2; full-length, pET-28b(+), His-tag (Ni-NTA), E. coli BL21(DE3)

ApN = target: T4, ApN (Arthrobacter pascens, UniProt E1CJF8); assay: GC-FID of ADPN consumed; settings: 50 mM ADPN, pH 7.5, 50 mM potassium phosphate, 35 °C, 30 min
T4 construct: gene inhB; full-length, pET-28b(+), His-tag (Ni-NTA), E. coli BL21(DE3)
T4 sequence (E1CJF8 1-359): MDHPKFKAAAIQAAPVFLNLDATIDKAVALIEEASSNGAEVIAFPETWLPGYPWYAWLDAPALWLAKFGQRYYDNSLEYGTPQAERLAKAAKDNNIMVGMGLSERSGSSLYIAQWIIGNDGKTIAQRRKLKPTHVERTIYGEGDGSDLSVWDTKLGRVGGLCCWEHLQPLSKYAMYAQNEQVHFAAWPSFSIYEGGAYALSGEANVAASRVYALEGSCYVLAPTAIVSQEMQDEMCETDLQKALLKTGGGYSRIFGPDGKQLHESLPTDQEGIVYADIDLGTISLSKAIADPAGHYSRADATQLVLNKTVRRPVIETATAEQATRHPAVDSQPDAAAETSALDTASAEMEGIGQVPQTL

AcN = target: T5, AcN (Acidovorax facilis, UniProt Q1W2L4); assay: initial velocity, HPLC, Michaelis-Menten fit; settings: pH 7.5, 50 mM potassium phosphate, 35 °C; unit printed as mM^−1 (mM meant); 10.5–262.5 mM substrate
T5 construct: gene nitA; full-length, pET-28b(+), His-tag (Ni-NTA), E. coli BL21(DE3); synthesised gene
Excerpt: initial velocity, HPLC, Michaelis-Menten fit on AcN

## N#CCCCCC#N [adiponitrile]
GpN
  GC-FID of ADPN consumed: All nitrilases demonstrated ADPN hydrolysis activity
RjN
  GC-FID of ADPN consumed: All nitrilases demonstrated ADPN hydrolysis activity
TpN
  GC-FID of ADPN consumed: All nitrilases demonstrated ADPN hydrolysis activity
ApN
  GC-FID of ADPN consumed: All nitrilases demonstrated ADPN hydrolysis activity

## N#CCNCC#N [iminodiacetonitrile]
AcN
  Km mM^-1: 0.76 ± 0.02 mM⁻¹
